PubChem BioAssay (NCI)
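Growth conditions: 96-well plates. Treatment: test compound, 48 hours, 5 concentrations. Analysis: linear interpolation between bracketing concentrations; unreached endpoints set to highest concentration. GI50 is the concentration that inhibits growth by half. The concentration for full growth arrest is given as TGI.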

How the values were obtained:
Assay in all cases: NCI-60 cell line screen, 48 h
A498 renal = system: A498 renal
UACC-257 melanoma = system: UACC-257 melanoma
CAKI-1 renal = system: CAKI-1 renal
HOP-92 NSCLC = system: HOP-92 NSCLC
SF-295 CNS = system: SF-295 CNS
UO-31 renal = system: UO-31 renal
HL-60(TB) leukemia = system: HL-60(TB) leukemia
NCI-H460 lung = system: NCI-H460 lung
KM12 colon = system: KM12 colon
BT-549 breast = system: BT-549 breast

Row | Structure (SMILES) | TGI (A498 renal) | TGI (UACC-257 melanoma) | TGI (CAKI-1 renal) | TGI (HOP-92 NSCLC) | TGI (SF-295 CNS) | TGI (UO-31 renal) | TGI (HL-60(TB) leukemia) | TGI (NCI-H460 lung) | TGI (KM12 colon) | GI50 (UACC-257 melanoma) | GI50 (BT-549 breast) | TGI (BT-549 breast) | GI50 (CAKI-1 renal) | GI50 (HOP-92 NSCLC) | GI50 (HL-60(TB) leukemia) | GI50 (NCI-H460 lung) | GI50 (SF-295 CNS) | GI50 (UO-31 renal) | GI50 (KM12 colon) | GI50 (A498 renal)
1 | COCCNC(=O)C1C(=O)C(=O)N(CCOC)C1=O (configuration not stated) | > 100 µM | > 100 µM | > 100 µM | > 100 µM | > 100 µM | > 100 µM | – | – | – | – | – | – | – | – | – | – | – | – | – | –
2 | Cc1ccc(C)c(N2C(=O)C(=O)C(c3nc4ccccc4s3)/C(=N/NC(=O)NN)C2=O)c1 (configuration not stated) | > 100 µM | > 100 µM | > 100 µM | > 100 µM | > 100 µM | > 100 µM | > 100 µM | > 100 µM | > 100 µM | – | – | – | – | – | – | – | – | – | – | –
3 | CCN(CC)CCCCCCNc1cc(OC)cc2cccnc12 | – | 36.8 µM | 26.6 µM | 27.6 µM | 26.5 µM | 29.5 µM | 4.03 µM | 3.79 µM | 10.5 µM | 20.2 µM | 17.4 µM | 33.6 µM | 12.4 µM | 12.5 µM | 1.94 µM | 2 µM | 11.4 µM | 11.5 µM | 3.15 µM | –
4 | Cc1ccc(/C(C#N)=C/c2cccc([N+](=O)[O-])c2)cc1 | > 100 µM | > 100 µM | > 100 µM | > 100 µM | 67.3 µM | > 100 µM | – | > 100 µM | > 100 µM | – | – | > 100 µM | – | – | – | – | – | – | – | –
5 | C[CH2][Sn]([CH2]C)([O]C(=O)c1ccccc1OC)[O][Sn]([CH2]C)([CH2]C)[O]C(=O)c1ccccc1OC | > 100 µM | > 100 µM | > 100 µM | > 100 µM | > 100 µM | > 100 µM | > 100 µM | > 100 µM | > 100 µM | > 100 µM | – | – | 34.6 µM | 89.4 µM | > 100 µM | > 100 µM | > 100 µM | > 100 µM | > 100 µM | 44.4 µM
6 | COC(=O)[C@@]1(C(C)CC(=O)O)CCCCC1=O (some centres not stated) | > 100 µM | > 100 µM | > 100 µM | > 100 µM | > 100 µM | > 100 µM | > 100 µM | > 100 µM | > 100 µM | – | – | – | – | – | – | – | – | – | – | –
7 | C=C1CCC2[C@@H](CCC3[C@]2(C)CCC[C@]3(C)C(=O)OC)C1CC=O (some centres not stated) | 31.9 µM | 31 µM | 30.1 µM | 27.8 µM | 31.3 µM | 28.9 µM | 40.1 µM | 31.7 µM | 36.6 µM | – | – | – | 16.4 µM | – | – | – | 16.8 µM | 14.8 µM | 18.7 µM | 17.2 µM
8 | Cc1cc(N(CCCNc2ccnc3cc(Cl)ccc23)Cc2ccco2)nc(N2CCN(C)CC2)n1 | 45.5 µM | 3.8 µM | – | 4.99 µM | 3.84 µM | 5.33 µM | 4.37 µM | 11.4 µM | 16.7 µM | 1.97 µM | 2.07 µM | 6.05 µM | – | 1.92 µM | 2.06 µM | 3.12 µM | 1.87 µM | 2.02 µM | 3.73 µM | 9.15 µM
9 | O=C(O)Cc1cccnc1 | > 100 µM | > 100 µM | > 100 µM | > 100 µM | > 100 µM | > 100 µM | – | > 100 µM | > 100 µM | – | – | > 100 µM | – | – | – | – | – | – | – | –
10 | CCCCCO/N=C\c1c2c(O)c3c(O)c(C)c4c(c3c1O)C(=O)C(C)(O/C=C\C(OC)C(C)C(OC(C)=O)C(C)C(O)C(C)C(O)C(C)/C=C\C=C(\C)C(=O)N2)O4 (configuration not stated) | 3.16 µM | 6.19 µM | 4.5 µM | – | 4.3 µM | – | 6.34 µM | 2.83 µM | 3 µM | 2.3 µM | – | – | 1.91 µM | – | 2.92 µM | 1.51 µM | 1.87 µM | – | 1.64 µM | 1.64 µM
11 | NC(=O)C(=O)C1CCC2=C(Sc3ccccc3N2)C1=O (configuration not stated) | > 100 µM | > 100 µM | > 100 µM | > 100 µM | – | > 100 µM | > 100 µM | > 100 µM | > 100 µM | – | – | – | – | – | – | – | – | – | – | –
12 | Nc1c([N+](=O)[O-])nc(Cl)c2nncn12 | > 100 µM | > 100 µM | > 100 µM | > 100 µM | > 100 µM | > 100 µM | > 100 µM | > 100 µM | > 100 µM | – | – | – | – | – | – | – | – | – | – | –
13 | CC1OC(OC2C(O)CC(OC3C(O)CC(OC4CCC5(C)C(CCC6C5CC(O)C5(C)C(C7=CC(=O)OC7)CCC65O)C4)OC3C)OC2C)CC(O)C1O (configuration not stated) | 0.544 µM | 0.256 µM | 0.204 µM | – | 0.171 µM | 0.148 µM | 0.0564 µM | 0.088 µM | 0.28 µM | 0.126 µM | 0.0309 µM | 0.101 µM | 0.0416 µM | – | 0.0253 µM | 0.0305 µM | 0.0317 µM | 0.0377 µM | 0.0824 µM | 0.107 µM
14 | N#CC(C#N)c1ccc(C(=O)N2CCC[C@H]2CO)cc1 | – | > 100 µM | > 100 µM | > 100 µM | > 100 µM | > 100 µM | > 100 µM | > 100 µM | > 100 µM | – | – | – | – | – | – | – | – | – | – | –
15 | COc1ccc(-c2cc(C(=O)Nc3ccc(C)c(C)c3)nc(NC#N)n2)cc1 | > 100 µM | > 100 µM | > 100 µM | – | – | > 100 µM | – | > 100 µM | > 100 µM | – | – | – | – | – | – | – | – | – | – | –
16 | Cc1ccccc1NC(=O)C(=O)C(C#N)c1ccccc1C (configuration not stated) | > 100 µM | > 100 µM | > 100 µM | > 100 µM | > 100 µM | > 100 µM | > 100 µM | > 100 µM | > 100 µM | – | – | – | – | – | – | – | – | – | – | –
17 | COCOCC/C=C/C=O | > 100 µM | > 100 µM | – | > 100 µM | > 100 µM | > 100 µM | > 100 µM | > 100 µM | > 100 µM | – | – | – | – | – | – | – | – | – | – | –
18 | Cc1ccc(S(=O)(=O)N/N=C(/CC(=O)c2c(C)n([O-])c3ccccc3[n+]2=O)C(=O)Nc2ccccc2C)cc1 | > 100 µM | > 100 µM | > 100 µM | > 100 µM | > 100 µM | > 100 µM | – | > 100 µM | > 100 µM | – | – | – | – | – | – | – | – | – | – | –
19 | CC1(C)CC(=O)C(/C(=N/NC(=S)NN)C(=O)Nc2nc3ccc([N+](=O)[O-])cc3s2)C(=O)C1 | > 100 µM | > 100 µM | > 100 µM | > 100 µM | > 100 µM | > 100 µM | > 100 µM | > 100 µM | > 100 µM | – | – | – | – | – | – | – | – | – | – | –
